The test deals with T1, recombinant human 11 β-HSD1 (Homo sapiens, UniProt P28845).
T1 construct: made in house; host or cells: E. coli
The test is described as follows: 11 β-HSD1 SPA Assay (Scintillation Proximity Assay). It is filed as biochemical. An outline of the steps: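 E. coli-expressed human enzyme (30-100 nM) with tritiated cortisone 40 nM and NADPH 1 mM in HEPES buffer pH7.4, 2 hours at room temperature. Stopped with protein A SPA beads carrying anti-cortisol antibody and glycyrrhetinic acid; counted after overnight incubation. IC50 from percent inhibition between no-enzyme and no-compound signals.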

Where only a bound is given, the exact number is not on record here.

T1 sequence (P28845 whole entry): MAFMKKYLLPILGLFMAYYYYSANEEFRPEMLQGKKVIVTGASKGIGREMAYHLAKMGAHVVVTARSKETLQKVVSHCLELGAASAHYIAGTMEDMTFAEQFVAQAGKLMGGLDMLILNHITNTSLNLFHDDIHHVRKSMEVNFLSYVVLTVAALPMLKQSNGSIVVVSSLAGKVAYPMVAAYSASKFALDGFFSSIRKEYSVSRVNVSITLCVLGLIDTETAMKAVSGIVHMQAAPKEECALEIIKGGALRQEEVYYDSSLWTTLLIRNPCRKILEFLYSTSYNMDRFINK

Turning to `CC(C)(Oc1ccc(Cl)cc1Cl)C(=O)N[C@H]1C[C@H]2CC[C@@H](C1)N2c1ccc(C(=O)NC2CC2)c(F)c1` [Example 130, N-cyclopropyl-4-[3-endo-({2-[(2,4-dichlorophenyl)oxy]-2-methylpropanoyl}amino)-8-azabicyclo[3.2.1]oct-8-yl]-2-fluorobenzamide], the IC50 – broadly, the concentration that gives 50% inhibition – was below 200 nM. The figure for `CC(C)(Oc1ccc(Cl)cc1Cl)C(=O)N[C@H]1C[C@H]2CC[C@@H](C1)N2c1ncc(C(=O)NCC(F)(F)F)cc1Cl` [Example 131, 5-chloro-6-[3-endo-({2-[(2,4-dichlorophenyl)oxy]-2-methylpropanoyl}amino)-8-azabicyclo[3.2.1]oct-8-yl]-N-(2,2,2-trifluoroethyl)pyridine-3-carboxamide] is below 200 nM. The figure for `CC(C)(Oc1ccc(Cl)cc1Cl)C(=O)N[C@H]1C[C@H]2CC[C@@H](C1)N2c1ccc(C(=O)NC2CC2)cc1` [Example 132, N-cyclopropyl-4-[3-endo-({2-[(2,4-dichlorophenyl)oxy]-2-methylpropanoyl}amino)-8-azabicyclo[3.2.1]oct-8-yl]benzamide] is below 200 nM; for `CC(C)(Oc1ccc(Cl)cc1Cl)C(=O)N[C@H]1C[C@H]2CC[C@@H](C1)N2c1ccc(NC(=O)CC(F)(F)F)cc1` [Example 133, N-{4-[3-endo-({2-[(2,4-dichlorophenyl)oxy]-2-methylpropanoyl}amino)-8-azabicyclo[3.2.1]oct-8-yl]phenyl}-3,3,3-trifluoropropanamide] it is below 200 nM; for `CC(C)(Oc1ccc(Cl)cc1Cl)C(=O)N[C@H]1C[C@H]2CC[C@@H](C1)N2c1ccc(NC(=O)NCC(F)(F)F)cn1` [Example 134, 2-[(2,4-dichlorophenyl)oxy]-2-methyl-N-{8-[5-({[(2,2,2-trifluoroethyl)amino]carbonyl}amino)pyridin-2-yl]-8-azabicyclo[3.2.1]oct-3-endo-yl}propanamide] it is below 200 nM. For `CC(C)(Oc1ccc(Cl)cc1Cl)C(=O)N[C@H]1C[C@H]2CC[C@@H](C1)N2c1ccc(NC(=O)NCC(F)(F)F)cc1` [Example 135, 2-[(2,4-dichlorophenyl)oxy]-2-methyl-N-{8-[4-({[(2,2,2-trifluoroethyl)amino]carbonyl}amino)phenyl]-8-azabicyclo[3.2.1]oct-3-endo-yl}propanamide] the value was below 200 nM.

`CC(C)(Oc1ccc(Cl)cc1Cl)C(=O)N[C@H]1C[C@H]2CC[C@@H](C1)N2c1ccc(NC(=O)NCC(F)(F)F)cc1Cl` [Example 136, N-{8-[2-chloro-4-({[(2,2,2-trifluoroethyl)amino]carbonyl}amino)phenyl]-8-azabicyclo[3.2.1]oct-3-endo-yl}-2-[(2,4-dichlorophenyl)oxy]-2-methylpropanamide]: the IC50 was below 2000 nM. For `CC(C)(Oc1ccc(Cl)cc1Cl)C(=O)N[C@H]1C[C@H]2CC[C@@H](C1)N2c1ccc(NC(=O)NCC(F)(F)F)cc1F` [Example 137, 2-[(2,4-dichlorophenyl)oxy]-N-{8-[2-fluoro-4-({[(2,2,2-trifluoroethyl)amino]carbonyl}amino)phenyl]-8-azabicyclo[3.2.1]oct-3-endo-yl}-2-methylpropanamide] the value was below 200 nM; for `CC(C)(Oc1ccc(Cl)cc1Cl)C(=O)N[C@H]1C[C@H]2CC[C@@H](C1)N2c1ccc(NC(=O)CC(F)(F)F)cc1Cl` [Example 138, N-{3-chloro-4-[3-endo-({2-[(2,4-dichlorophenyl)oxy]-2-methylpropanoyl}amino)-8-azabicyclo[3.2.1]oct-8-yl]phenyl}-3,3,3-trifluoropropanamide], below 2000 nM; for `CC(C)(Oc1ccc(Cl)cc1Cl)C(=O)N[C@H]1C[C@H]2CC[C@@H](C1)N2c1ccc(NC(=O)CC(F)(F)F)cc1F` [Example 139, N-{4-[3-endo-({2-[(2,4-dichlorophenyl)oxy]-2-methylpropanoyl}amino)-8-azabicyclo[3.2.1]oct-8-yl]-3-fluorophenyl}-3,3,3-trifluoropropanamide], below 200 nM. The figure for `CC(C)(Oc1ccc(Cl)cc1Cl)C(=O)N[C@H]1C[C@H]2CC[C@@H](C1)N2c1ccc(S(C)(=O)=O)cn1` [Example 140, 2-[(2,4-dichlorophenyl)oxy]-2-methyl-N-{8-[5-(methylsulfonyl)pyridin-2-yl]-8-azabicyclo[3.2.1]oct-3-endo-yl}propanamide] is below 200 nM.

`NC(=O)c1ccc(N2[C@@H]3CC[C@H]2C[C@@H](NC(=O)C2(c4ccc(F)c(F)c4)CC2)C3)nc1` [Example 141, 6-[3-endo-({[1-(3,4-difluorophenyl)cyclopropyl]carbonyl}amino)-8-azabicyclo[3.2.1]oct-8-yl]pyridine-3-carboxamide]: the concentration for half-maximal inhibition (IC50) was below 200 nM. For `CC(C)(Oc1ncc(Cl)cc1F)C(=O)N[C@H]1C[C@H]2CC[C@@H](C1)N2c1ccc(C(N)=O)cn1` [Example 142, 6-[3-endo-({2-[(5-chloro-3-fluoropyridin-2-yl)oxy]-2-methylpropanoyl}amino)-8-azabicyclo[3.2.1]oct-8-yl]pyridine-3-carboxamide] the value was below 200 nM; for `CC(C)(Oc1ccc(Cl)cc1Cl)C(=O)N[C@H]1C[C@H]2CC[C@@H](C1)N2c1cc(C(=O)NC2CC2)ccn1` [Example 143, N-cyclopropyl-2-[3-endo-({2-[(2,4-dichlorophenyl)oxy]-2-methylpropanoyl}amino)-8-azabicyclo[3.2.1]oct-8-yl]pyridine-4-carboxamide], below 2000 nM. The figure for `CC(C)(Oc1ccc(Cl)cc1C(F)(F)F)C(=O)N[C@H]1C[C@H]2CC[C@@H](C1)N2c1ccc(C(=O)NCC(F)(F)F)cn1` [Example 144, 6-{3-endo-[(2-{[4-chloro-2-(trifluoromethyl)phenyl]oxy}-2-methylpropanoyl)amino]-8-azabicyclo[3.2.1]oct-8-yl}-N-(2,2,2-trifluoroethyl)pyridine-3-carboxamide] is below 200 nM; for `CC(C)(Oc1ccc(F)cc1C(F)(F)F)C(=O)N[C@H]1C[C@H]2CC[C@@H](C1)N2c1ccc(C(=O)NCC(F)(F)F)cn1` [Example 145, 6-{3-endo-[(2-{[4-fluoro-2-(trifluoromethyl)phenyl]oxy}-2-methylpropanoyl)amino]-8-azabicyclo[3.2.1]oct-8-yl}-N-(2,2,2-trifluoroethyl)pyridine-3-carboxamide] it is below 200 nM.

As for `CC(C)(Oc1ccc(Cl)cc1Cl)C(=O)N[C@H]1C[C@H]2CC[C@@H](C1)N2c1ccc(NC(=O)C(F)(F)F)cn1` [Example 146, 2-[(2,4-dichlorophenyl)oxy]-2-methyl-N-(8-{5-[(trifluoroacetyl)amino]pyridin-2-yl}-8-azabicyclo[3.2.1]oct-3-endo-yl)propanamide], the concentration for half-maximal inhibition (IC50) is below 200 nM. For `CC(C)(Oc1ccc(Cl)cc1Cl)C(=O)N[C@H]1C[C@H]2CC[C@@H](C1)N2c1ccc(NC(=O)CC(F)(F)F)cn1` [Example 147, N-{6-[3-endo-({2-[(2,4-dichlorophenyl)oxy]-2-methylpropanoyl}amino)-8-azabicyclo[3.2.1]oct-8-yl]pyridin-3-yl}-3,3,3-trifluoropropanamide] the value was below 200 nM; for `O=C(NC1CC1)c1ccc(N2[C@@H]3CC[C@H]2C[C@@H](NC(=O)C2(c4ccc(Cl)cc4)CC2)C3)c(F)c1` [Example 148, 4-[3-endo-({[1-(4-chlorophenyl)cyclopropyl]carbonyl}amino)-8-azabicyclo[3.2.1]oct-8-yl]-N-cyclopropyl-3-fluorobenzamide], below 200 nM.
